Reference: ChEMBL document CHEMBL1129913, “Synthesis and cytotoxicity of novel artemisinin analogs” (Bioorg Med Chem Lett, 1997)
≈ marks a conversion by molar mass, not a printed value.

How the values were obtained:
KB = assay: Compound was tested for in vitro cytotoxicity against KB (human epidermoid carcinoma) cell line; type: functional, cell-based
P388 [1] = assay: Compound was tested for in vitro cytotoxicity against P388 (murine lymphocytic leukemia) cell line; type: functional, cell-based; details: Mus musculus
SK-OV-3 [2] = assay: Compound was tested for in vitro cytotoxicity against SK-OV-3 (human ovary carcinoma) cell line; type: functional, cell-based; details: SK-OV-3, Female gonad
Vero = assay: Compound was tested for in vitro cytotoxicity against VERO (African green monkey kidney) cell line; type: functional, cell-based; details: Chlorocebus sabaeus
SK-OV-3 [3] = assay: Compound was tested for in vitro cytotoxicity against SK-OV-3 (human ovary carcinoma) cell line;No activity; type: functional, cell-based, Female gonad
P388 [4] = assay: Compound was tested for in vitro cytotoxicity against P388 (murine lymphocytic leukemia) cell line;No activity; type: functional, cell-based, Mus musculus
SK-OV-3 [5] = assay: Compound was tested for in vitro cytotoxicity against SK-OV-3 (human ovary carcinoma) cell line; No activity; type: functional, cell-based, Female gonad

| Compound | IC50 (KB) [µg/mL] | IC50 (P388 [1]) [µg/mL] | IC50 (SK-OV-3 [2]) [µg/mL] | IC50 (Vero) [µg/mL] | IC50 (SK-OV-3 [3]) | IC50 (P388 [4]) | IC50 (SK-OV-3 [5]) |
| --- | --- | --- | --- | --- | --- | --- | --- |
| CC[C@H]1O[C@@H]2O[C@@]3(C)CC[C@H]4[C@H](C)CC[C@@H]([C@H]1C)[C@@]24OO3 | 20 (≈ 67.5 µM) | 5.5 (≈ 18.6 µM) | 33 (≈ 111 µM) | 30 (≈ 101 µM) |  |  |  |
| C[C@@H]1CCC2[C@@H](C)CCO[C@@H]3OC4(C)CCC1C23OO4 (single isomer, unassigned) | 22 (≈ 77.9 µM) | 8 (≈ 28.3 µM) |  | 30 (≈ 106 µM) | Not Active |  |  |
| CCCC[C@H]1O[C@@H]2OC3(C)CC[C@H]4[C@H](C)CC[C@@H]([C@H]1C)[C@@]24OO3 (single isomer, unassigned) | 4.5 (≈ 13.9 µM) | 40 (≈ 123 µM) | 40 (≈ 123 µM) | 15 (≈ 46.2 µM) |  |  |  |
| C[C@H]1[C@@H](CCCC(=O)O)O[C@@H]2OC3(C)CCC4[C@H](C)CC[C@@H]1[C@]42OO3 (single isomer, unassigned) | 32 (≈ 90.3 µM) |  |  | 30 (≈ 84.6 µM) | Not Active | Not Active |  |
| CCO[C@H]1O[C@@H]2OC3(C)CCC4[C@H](C)CC[C@@H]([C@H]1C)[C@]42OO3 (single isomer, unassigned) | 15 (≈ 48 µM) |  |  | 28 (≈ 89.6 µM) | Not Active | Not Active |  |
| C[C@H]1[C@@H](Cc2ccccc2)O[C@@H]2OC3(C)CCC4[C@H](C)CC[C@@H]1[C@]42OO3 (single isomer, unassigned) | 13 (≈ 36.3 µM) |  | 32 (≈ 89.3 µM) | 15 (≈ 41.8 µM) |  | Not Active |  |
| CCN(CC)Cc1ccc(C(=O)O[C@@H]2O[C@@H]3OC4(C)CCC5[C@H](C)CC[C@@H]([C@H]2C)[C@]53OO4)cc1 (single isomer, unassigned) | 3 (≈ 6.33 µM) |  |  | 15 (≈ 31.7 µM) | Not Active | Not Active |  |
| C[C@@H]1CC[C@H]2[C@@H](C)CO[C@@H]3OC4(C)CC[C@@H]1[C@]32OO4 (single isomer, unassigned) [DEOXOARTEMISININ] | 24 (≈ 89.4 µM) |  | 40 (≈ 149 µM) | 30 (≈ 112 µM) |  | Not Active |  |
| C[C@@H]1CC[C@H]2[C@@H](C)C(=O)O[C@@H]3O[C@@]4(C)CC[C@@H]1[C@]32OO4 [ARTEMISININ] | 16 (≈ 56.7 µM) | 28 (≈ 99.2 µM) |  | 31 (≈ 110 µM) |  |  | Not Active |
